Experimental data taken from patent publication US20110306621A1, “ACYLGUANIDINE DERIVATIVES” (priority 2009, published 2011).

Molecular target: T1, human 5-HT5A receptor (Homo sapiens, UniProt P47898)
T1 construct: expressed in transfected cells; membranes used
Assay: Test on a human 5-HT5A receptor binding inhibition ([3H]5-CT)
Details: membrane from HEK293 cells for forced expression of human 5-HT5A receptor; Ki calculated from IC50 and Kd of [3H]5-CT (4.95 nM)
Protocol: The ORF (open reading frame; protein coding region) of a human 5-HT5A receptor (Genbank AF498985) was cloned from a human hippocampus cDNA library, and then inserted into a pCR2.1 vector (Invitrogen), and Escherichia coli containing the plasmid was cultured in a large amount. Next, the full-length cDNA sequence of the human 5-HT5A receptor was analyzed, and recombined into a pcDNA3.1 vector (Invitrogen) as an expression vector and cultured in a large amount. HEK293 established cells (ATCC) derived from the human fetal kidney were seeded, the expression plasmid (1 μg) obtained above were added thereto with LIPOFECTAMINE 2000 (Invitrogen; 2 μl), the gene was transfected into HEK293 cells, and the expression cells were screened with a drug-resistant marker, Geneticin (G418 sulfate 500 μg/ml; Kanto Chemical Co., Inc.). Thus prepared recombinant cells which expressed the gene were cultured in a medium containing D-MEM (Dulbecco's modified eagle medium, Sigma), 10% FCS (Fetal calf serum: fetal bovine serum), 1% Pc./Sm (Penicillin/Streptomycin, Invitrogen), and 500 μg/ml G418 for 3 days. These experimental operations followed a manual for gene operation experiment and an instruction appended in a reagent, and the like, such as a known method (Sambrook, J. et al, Molecular Cloning-A Laboratory Manual”, Cold Spring Harabor laboratory, NY, 1989).
HEK293 cells for forced expressions of a human 5-HT5A receptor were cultured in a F500 plate, and scraped with a scraper. After centrifugation, the precipitate was collected, and an incubation buffer (50 mM Tris (HCl) (pH 7.4), 10 mM MgSO4, and 0.5 mM EDTA (ethylenediamine tetraacetic acid)) was added thereto. After homogenization, it was further centrifuged, and the incubation buffer was added to the precipitate, followed by thoroughly suspending. The operation was repeated, and protein concentration was measured, thereby completing preparation of the membrane.
A solution of the compound to be tested and 100 μM 5-CT (5-carboxamidetriptamine) in DMSO was added to a 96-well plate at 2 μl/well, suspended in an incubation buffer, and a membrane from HEK293 cells for forced expressions of a human 5-HT5A receptor prepared at 200 μg/ml was added at 100 μl/well. After incubation at room temperature for 15 minutes, a [^3H]5-CT solution (2 nM [^3H]5-CT, incubation buffer) was added thereto at 100 μl/well.
Separately, 100 μl of the solution was distributed into a liquid scintillation vial, and 2 ml of Aquasol II (registered trademark) was added thereto, followed by stirring. Then, radioactivity was measured by a liquid scintillation counter. It was incubated at 37° C. for 60 minutes. The reaction mixture was sucked into 96-well GF/C filter plate that had been pre-treated with 0.2% polyethyleneimine, and washed six times with an ice-cooled, 50 mM Tris (pH 7.5) buffer. The GF/C filter plate was dried.
Microscint TMPS (registered trademark) was added thereto at 40 μl/well. Radioactivity remaining on the GF/C filter plate was measured by a top counter.
The [^3H]5-CT binding inhibiting activity by the compound to be tested in each experiment was determined as an IC50 value with a radioactivity upon addition of DMSO alone being 0% inhibition, and a radioactivity upon addition of 1 μM 5-CT being 100% inhibition. Separately, Ki values were calculated from the Kd value of the [^3H]5-CT determined from Scatchard analysis, by the following equation.
Ki=IC50 (1+Concentraion of ligand added/Kd (4.95 nM))

T1 sequence (P47898 whole entry): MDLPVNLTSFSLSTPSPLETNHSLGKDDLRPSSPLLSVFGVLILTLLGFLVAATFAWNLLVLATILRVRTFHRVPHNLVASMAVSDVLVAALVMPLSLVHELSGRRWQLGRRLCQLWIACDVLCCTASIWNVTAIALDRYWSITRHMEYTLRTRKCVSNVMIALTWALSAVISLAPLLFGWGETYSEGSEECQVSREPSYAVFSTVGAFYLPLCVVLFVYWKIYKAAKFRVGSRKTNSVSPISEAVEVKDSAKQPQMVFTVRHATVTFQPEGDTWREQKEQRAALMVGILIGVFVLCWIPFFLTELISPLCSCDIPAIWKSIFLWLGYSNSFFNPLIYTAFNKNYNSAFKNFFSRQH

Compound	Ki [nM]
NC(N)=NC(=O)c1ccc2c(F)ccc(-c3c(F)cccc3F)c2c1 [Example 175]	0.3 to 3
NC(N)=NC(=O)c1ccc2cccc(-c3cc(C(F)(F)F)ccn3)c2c1 [Example 176]	30 to 300
NC(N)=NC(=O)c1ccc2cccc(-c3c(F)ccc(F)c3O)c2c1 [Example 177]	0.3 to 3
NC(N)=NC(=O)c1ccc2cccc(-c3cccc(Cl)c3O)c2c1 [Example 178]	0.3 to 3
NC(N)=NC(=O)c1ccc2cccc(-c3cccc4nonc34)c2c1 [Example 179]	3 to 30
NC(N)=NC(=O)c1ccc2cccc(-c3ncc(Cl)cc3F)c2c1 [Example 180]	3 to 30
N#Cc1cccnc1-c1cccc2ccc(C(=O)N=C(N)N)cc12 [Example 181]	30 to 300
NC(N)=NC(=O)c1ccc2cccc(-c3cncs3)c2c1 [Example 182]	3 to 30
NC(N)=NC(=O)c1ccc2cccc(-c3cc(C(F)(F)F)ncn3)c2c1 [Example 183]	3 to 30
N#Cc1ccc(-c2cccc3ccc(C(=O)N=C(N)N)cc23)nc1 [Example 184]	3 to 30
NC(N)=NC(=O)c1ccc2cccc(-c3cc(C4CC4)ncc3Cl)c2c1 [Example 185]	0.3 to 3
Cc1nc(C)c(-c2c(F)ccc3ccc(C(=O)N=C(N)N)cc23)s1 [Example 186]	0.3 to 3
NC(N)=NC(=O)c1ccc2cccc(-c3ccnc(C(F)(F)F)n3)c2c1 [Example 187]	3 to 30
COc1cc(C#N)ccc1-c1ccc(F)c2ccc(C(=O)N=C(N)N)cc12 [Example 188]	0.3 to 3
NC(N)=NC(=O)c1ccc2cccc(-c3ccc(C(F)(F)F)cn3)c2c1 [Example 189]	3 to 30
NC(N)=NC(=O)c1ccc2cccc(-c3ncc(F)cc3F)c2c1 [Example 190]	0.3 to 3
NC(N)=NC(=O)c1ccc2cccc(-c3c(F)cccc3C3CC3)c2c1 [Example 191]	0.3 to 3
NC(N)=NC(=O)c1ccc2cccc(-c3ncc(C4CC4)cc3Cl)c2c1 [Example 192]	3 to 30
Cc1c(-c2cccc3ccc(C(=O)N=C(N)N)cc23)ncnc1C1CC1 [Example 193]	30 to 300
NC(N)=NC(=O)c1ccc2cccc(-c3ncc(C(F)(F)F)cc3Cl)c2c1 [Example 194]	3 to 30
COc1cccnc1-c1cccc2ccc(C(=O)N=C(N)N)cc12 [Example 195]	30 to 300
N#Cc1cnc(-c2cccc3ccc(C(=O)N=C(N)N)cc23)c(Cl)c1 [Example 196]	3 to 30
NC(N)=NC(=O)c1ccc2cccc(-c3cc(Cl)ncc3F)c2c1 [Example 197]	0.3 to 3
NC(N)=NC(=O)c1ccc2cccc(-c3ccnc(C4CC4)c3F)c2c1 [Example 198]	0.3 to 3
NC(N)=NC(=O)c1ccc2cccc(-c3cc(C4CC4)ncc3F)c2c1 [Example 199]	3 to 30
Cc1cnc(-c2cccc3ccc(C(=O)N=C(N)N)cc23)c(Cl)c1 [Example 200]	3 to 30
NC(N)=NC(=O)c1ccc2cccc(-c3ccccn3)c2c1 [Example 201]	3 to 30
NC(N)=NC(=O)c1ccc2cccc(-c3ccnc(C4CC4)c3C3CC3)c2c1 [Example 202]	3 to 30
